Here are results for eight compounds from patent US20130178463A1, “ENHANCED TRANSBUCCAL DRUG DELIVERY SYSTEM AND COMPOSITIONS” (Rutgers, The State University of New Jersey, priority 2010, published 2013).

Where a name gives a salt, the structure may show the parent alone. Marks after values point to notes of the source that are not given here.

The nature of data set [1]: Histological study of buccal tissue (H&E, light microscopy). On the set-up: species or system porcine. The following applies: after passive permeation (FIG. 6); light micrographs 40×.
Procedure: The morphological changes in both untreated and treated buccal tissues were evaluated using light microscopy. Buccal membrane samples were sectioned carefully and fixed in 10% buffered formalin for 1 day at room temperature. […] This was followed by immersing in xylene at least three times, and finally embedding in Tissue-Tek O.C.T. compound under dry ice. […] The stained slices were examined under a Nikon Eclipse E 800 light microscope (Micro Optics, Cedar Knolls, N.J.) at 40×. A Nikon Digital Camera (Model DXM 1200) was used to capture images. Images were processed by SPOT™ Imaging Software, Version 5.0 (Diagnostic Instrument, Inc., Sterling Heights, Mich.).
A histological study was performed to evaluate the integrity of treated and untreated porcine tissues using standard H&E methodology.
Data set [2] in a line: In vitro transbuccal permeation of 0.5% ODAN.HCl gel with iontophoresis and/or chemical enhancers (Franz diffusion cells).
Procedure: Buccal mucosa samples with underlying connective tissue were surgically removed from the pig check area and stored under −30° C. for future use. Prior to use, the samples were thawed at room temperature for at least 3 hours. Then the underlying connective tissue was removed using a scalpel blade and the remaining buccal mucosa was then carefully trimmed using surgical scissors to a thickness of about 300-400 μm. The buccal tissues were placed in phosphate buffered saline (PBS) with pH 7.5 for 1 hour prior to use.
Franz diffusion cells (PermeGear, Hellertown, Pa.) were used for all in vitro permeation studies using buccal tissue under varying conditions: passive (control); 1 hour enhancer pretreatment, 8 hours iontophoresis (0.1, 0.2 and 0.3 mA); and combined treatment of 1 hour enhancer treatment and 8 hours iontophoresis at 0.3 mA, and then passive only up to 24 hrs. All permeation studies were performed at 37° C.
For passive permeation studies, the Franz cell receptor compartment was filled with PBS solution and stirred at 600 rpm. […] At different time points (0.0, 0.5, 1. 3, 5, 8, 12, 20, 24 hrs), 300 μl sample was withdrawn from receptor compartment for HPLC analysis and immediately replaced with 300 μl of PBS (pH=7.5).
For iontophoresis, a Phoresor II Auto—Iontophoresis Power Device (Model PM 850) Iomed, Inc., provided 0.1, 0.2 and 0.3 MA for 8 hrs of treatment. […] The cathode (AgCl) was inserted into the receptor compartment. After 8 hours, iontophoresis was discontinued and then the passive-only permeation continued for 16 hrs. The sampling method and time points were the same as for passive and chemical enhancer pretreatment experiments.
An 8 hour iontophoresis period is referred to herein as Stage I. A post −8 hour iontophoresis period, passive only permeation period is referred to herein as Stage II.
The cumulative drug amount in the receptor compartment after 8 hrs and 24 hrs was defined as Q8 and Q24 (μg cm^−2), respectively. The enhancement ratio (ER) for flux was calculated as follows:
Franz diffusion cells were used for all in vitro permeation studies using buccal tissue under varying conditions: passive (control), 1 hour enhancer pretreatment, 8 hrs. iontophoresis (0.1, 0.2 and 0.3 mA), and combined treatment of 1 hr. enhancer pretreatment and 8 hrs. iontophoresis at 0.3 mA, and then passive only up to 24 hrs. All permeation studies performed at 37° C. The procedure for passive permeation studies described above was followed.
The concentration of ODAN.HCl in the receptor compartment was analyzed by HPLC. […] A C18 column (150×4.6 mm C18 (2) 100 A Luna 5 μm, Phenomenex) with a guard column was used at 25° C.
Data set [3] can be described thus: In vitro transdermal permeation of LHCl, NHT and DHCl gels (Franz diffusion cells). The following applies: for enhancement effect on transdermal delivery of NHT / enhancement effect on transdermal delivery of LHCl / enhancement effect on transdermal delivery of DHCl: in words, 1 hr. enhancer pretreatment, compared to control; for Flux / Q8: Transdermal.
Data set [4] is described as follows: In vitro transbuccal permeation of LHCl, NHT and DHCl gels (Franz diffusion cells). As to conditions: for Q8 / Flux: Transbuccal.
Procedure: Buccal mucosa samples were harvested from pig's cheek area and placed below −30° C. The tissue samples were defrosted at room temperature first before use. Then a scalpel blade and a surgical scissor were used to remove the underlying connective tissue and trim the buccal mucosa to about 300 to 400 μm in thickness. Before each evaluation the buccal tissues were submerged in PBS (pH 7.5) for 1 hour.
Iontophoresis was terminated after 8 hour application.
A short description of data set [5]: Physicochemical properties stated in the description. As to conditions: in words; reason for preparing solutions in PG only.
The conditions of data set [6]: in words; drug description; cited from earlier work.
[7] abbreviates: Stage II after 8 h iontophoresis 0.2 mA.
Setting [8] is: in words, 1 hr. enhancer pretreatment, compared to control.
Where [9] appears, read: Control (untreated passive), 8 h (Tables 19-21).
Setting [10] is: iontophoresis 0.3 mA for 8 h (Tables 19-21).
Setting [11] is: iontophoresis 0.3 mA for 8 h, listed as nicotine hydrogen tartrate, tartrate.
[12] abbreviates: iontophoresis 0.3 mA for 8 h, tartrate.

Source text for EpiOral™ tissue: MTS 3-(4,5-dimethylthiazol-2-yl)-5-(3-carboxymethoxyphenyl)-2-(4-sulfophenyl)-2H-tetrazolium, inner salt) assay was used to evaluate enhancer cytotoxicity in buccal tissues. […] The number of surviving cells is directly proportional to the level of the formazan. The color can then be quantified at 490 nm using a Microplate Power Wave X Scanning Spectrophotometer (Bio-TEK Instruments, Inc., Winooski, Vt.).
EpiOral™ tissue (ORL-200) was used, which is a multilayered tissue mainly composed of an organized basal layer and multiple non-cornified layers analogous to native human buccal tissue. A 24-well plate containing ORL-200 (cell culture inserts) was stored in the refrigerator (4° C.) prior to use. […] After this, 100 μl of the reacted MTS solution from each well was pipetted into a marked 96-well microtiter plate for spectrophotometer reading (SPR) at 490 nm using Microplate Power Wave X Scanning Spectrophotometer (Bio-TEK Instruments, Inc., Winooski, Vt.). […] The EpiOral tissue % viability at each of the dosed concentrations was calculated using the following formula: […]
Dose response curve was established using a semi-log scale to plot % viability (linear y axis) vs. the dosing time (log x axis). […] All the SPR were deducted from blank readings for viability and ET-50 value final calculations. […]

Regarding `Cc1nccn1CC1CCc2c(c3ccccc3n2C)C1=O` (racemic) [ODAN•HCl, (±) 1,2,3,9-tetrahydro-9-methyl-3-[(2-methyl-1H-imidazol-1-yl)methyl]-4H-carbazol-4-one, monohydrochloride, dihydrate], the “morphology of buccal tissue compared to untreated” value in data set [1] is reported as “no major morphological changes”. The Q8 in data set [2] (0.5% ODAN.HCl gel, Stage I, Control (passive)) turned out to be 25.5 ± 5.1 µg/cm²; in data set [2] (Stage I, iontophoresis 0.1 mA), 83.3 ± 33.5 µg/cm²; in data set [2] (Stage I, iontophoresis 0.2 mA), 133 ± 50.1 µg/cm²; in data set [2] (Stage I, iontophoresis 0.3 mA), 190 ± 42.7 µg/cm². For the same compound, the Flux in data set [2] (0.5% ODAN.HCl gel, Stage I, iontophoresis 0.1 mA) is given as 10.6 ± 4.5^b μg/cm^2/h; in data set [2] (0.5% ODAN.HCl gel, Stage I, iontophoresis 0.2 mA) it was 16.5 ± 6.5^b μg/cm^2/h; in data set [2] (0.5% ODAN.HCl gel, Stage I, iontophoresis 0.3 mA), 22.8 ± 4.6^b μg/cm^2/h; in data set [2] (Stage II (8-24 h, passive) after 8 h iontophoresis 0.1 mA), 13.7 ± 4.3^b μg/cm^2/h; in data set [2] (setting [7]), 12.7 ± 5.3^b μg/cm^2/h; in data set [2] (Stage II after 8 h iontophoresis 0.3 mA, listed as ODAN.HCl, monohydrochloride, dihydrate), 11.9 μg/cm^2/h. For the same compound, in data set [2] (Stage II after 8 h iontophoresis 0.3 mA, monohydrochloride, dihydrate), the Flux is 11.9 ± 2.3^b μg/cm^2/h. In addition, the ER was determined as 1 in data set [2] (Stage I, Control (reference)); 3.3 in data set [2] (Stage I, iontophoresis 0.1 mA, flux vs control); 5.2 in data set [2] (Stage I, iontophoresis 0.2 mA, flux vs control); 7.1 in data set [2] (Stage I, iontophoresis 0.3 mA, flux vs control); 2.8 in data set [2] (Stage II after 8 h iontophoresis 0.1 mA, flux vs control); 2.6 in data set [2] (Stage II after 8 h iontophoresis 0.2 mA, flux vs control). Besides, the ER in data set [2] (Stage II after 8 h iontophoresis 0.3 mA, flux vs control) came to 2.4; in data set [2] (Stage II, Control (reference)), 1. The Q24 worked out at 297 ± 90.1 µg/cm² in data set [2] (Stage II after 8 h iontophoresis 0.1 mA); 337 ± 130 µg/cm² in data set [2] (setting [7]); 380 ± 68.1 µg/cm² in data set [2] (Stage II after 8 h iontophoresis 0.3 mA); 105 ± 22.8 µg/cm² in data set [2] (Stage II, Control (passive)).

For `CCCCCCCCCCCCN1CCCCCC1=O` [Azone, 1-Dodecylazacycloheptan-2-one], the “enhancement effect on transdermal delivery of NHT” value in data set [3] is given as “no enhancement effect”. The “enhancement effect on transbuccal delivery of NHT” value in data set [4] (setting [8]) was “no enhancement effect”.

For the compound `CS(C)=NC(=O)c1ccc(Br)cc1` [Br-iminosulfurane], the aqueous solubility entry in data set [5] is “low aqueous solubilities”. Further, in data set [3], the “enhancement effect on transdermal delivery of LHCl” value is “enhanced” and the “enhancement effect on transdermal delivery of NHT” value was “no enhancement effect”. For the same compound, in data set [4] (setting [8]), the “enhancement effect on transbuccal delivery of LHCl” value is recorded as “enhanced” and the “enhancement effect on transbuccal delivery of NHT” value is on record as “no enhancement effect”.

For the compound `CCCCCCCCCCCCOC(=O)C(C)N(C)C` (stereo not shown) [DDAIP, dodecyl 2-(N,N dimethylamino) propionate], in data set [5], the aqueous solubility result is listed as “low aqueous solubilities”. Also, in data set [3], the “enhancement effect on transdermal delivery of DHCl” value is listed as “had enhancement effect”, the “enhancement effect on transdermal delivery of LHCl” value is recorded as “had enhancement effect” and the “enhancement effect on transdermal delivery of NHT” value was “no enhancement effect”. In data set [4] (setting [8]), the “enhancement effect on transbuccal delivery of DHCl” value is “had enhancement effect” and the “enhancement effect on transbuccal delivery of LHCl” value was “had enhancement effect”. For the same compound, the “effectiveness in enhancing ODAN.HCl permeability across porcine buccal tissues” value in data set [2] (in words, summary of Example 6) is on record as “only marginally effective”.

As for `CCCCCCCCCCCCOC(=O)C(C)N(C)C.Cl` (stereo not shown) [DDAIP.HCl, dodecyl-2-N,N-dimethylaminopropionate hydrochloride], the “effect on viability of EpiOral tissue compared to water” value in the data set with EpiOral™ tissue is on record as “did not reduce the viability”. Further, in data set [3], the “enhancement effect on transdermal delivery of DHCl” value is reported as “no enhancement effect”, the “enhancement effect on transdermal delivery of LHCl” value is reported as “no enhancement effect” and the “enhancement effect on transdermal delivery of NHT” value is reported as “no enhancement effect”.

Regarding `COc1ccc([C@@H]2Sc3ccccc3N(CCN(C)C)C(=O)[C@@H]2OC(C)=O)cc1` [Diltiazem HCl, 1,5-Benzothiazepin-4(5H) one, 3-(acetyloxy)-5-[2-(dimethylamino)ethyl]-2,3-dihyro-2-(4-methoxyphenyl)-, monohydrochloride, (+)-cis-], in data set [6], the solubility result is “soluble in water, methanol, and chloroform”.

On to `CCN(CC)CC(=O)Nc1c(C)cccc1C` [Lidocaine HCl, 2-(Diethylamino)-2′,6′-acetoxylidide mono-hydrochloride, monohydrate], for which the Q8 is reported as 345.6 ± 74.3^ μg/cm^2 in data set [4] (setting [9]) and 1910.2 ± 454.7^b μg/cm^2 in data set [4] (setting [10]). The Flux in data set [4] (Control (untreated passive), 8 h, […] LHCl, 2% NHT or 2% DHCl gel, listed as lidocaine HCl, mono-hydrochloride, monohydrate) is given as 44.7 ± 9.6 μg/cm^2*h; in data set [4] (iontophoresis 0.1 mA for 8 h), 137.1 ± 13.1^b μg/cm^2*h; in data set [4] (iontophoresis 0.3 mA for 8 h, listed as lidocaine HCl, mono-hydrochloride, monohydrate), 241.7 ± 60.5^c μg/cm^2*h; in data set [4] (iontophoresis 0.3 mA for 8 h, mono-hydrochloride, monohydrate), 241.7 ± 60.5^b μg/cm^2*h.

For the compound `CN1CCCC1c1cccnc1.O=C(O)C(O)C(O)C(=O)O` (stereo not shown) [Nicotine Hydrogen Tartrate, Nicotine hydrogen tartrate], the solubility entry in data set [6] was “soluble in water”. The Flux in data set [3] (Control (untreated passive), 8 h, […] LHCl, 2% NHT or 2% DHCl gel) is recorded as 1.3 ± 1.9 μg/cm^2*h; in data set [3] (iontophoresis 0.1 mA for 8 h) it was 56.1 ± 11.4^b μg/cm^2*h; in data set [3] (setting [11]) it was 138.4 ± 72.3^c μg/cm^2*h; in data set [3] (setting [12]), 138.4 ± 72.3^b μg/cm^2*h; in data set [4] (Control (untreated passive), 8 h, […] LHCl, 2% NHT or 2% DHCl gel, listed as nicotine hydrogen tartrate, tartrate) it was 0.9 ± 0.4 μg/cm^2*h; in data set [4] (iontophoresis 0.1 mA for 8 h), 17.6 ± 6.9^b μg/cm^2*h. In addition, the Flux in data set [4] (setting [11]) is on record as 81.7 ± 35.9^c μg/cm^2*h; in data set [4] (setting [12]), 81.7 ± 35.9^b μg/cm^2*h. The Q8 in data set [3] (Control (untreated passive), 8 h, tartrate) is reported as 9.9 ± 14.6 μg/cm^2; in data set [3] (iontophoresis 0.1 mA for 8 h), 433.2 ± 85.4^b μg/cm^2; in data set [3] (setting [11]) it was 1326.6 ± 186.2^c μg/cm^2; in data set [3] (setting [12]), 1326.6 ± 186.2^b μg/cm^2; in data set [4] (setting [9]), 6.9 ± 2.6^ μg/cm^2; in data set [4] (setting [10]), 629.5 ± 276.8^b μg/cm^2.
